Measurements published in PubChem BioAssay (NCI).
Where “and” joins values, the source holds several entries; their conditions need not be identical. Equal entries are not always repeated.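 Where inhibition never reached the appropriate level, the endpoint shown equals the highest concentration tested. Otherwise, values were interpolated linearly from a five-concentration, 48-hour dose response in 96-well plates. Abbreviation: GI50, concentration required for 50% inhibition of growth. TGI denotes the concentration required for complete inhibition of growth.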

Key:
Assay in all cases: growth of human tumour cells (NCI), 48 h
A498 renal = test system: A498 renal
COLO 205 colon = test system: COLO 205 colon
EKVX NSCLC = test system: EKVX NSCLC
LOX IMVI melanoma = test system: LOX IMVI melanoma
MDA-MB-231 breast = test system: MDA-MB-231 breast
NCI-H522 lung = test system: NCI-H522 lung
OVCAR-4 ovarian = test system: OVCAR-4 ovarian
OVCAR-8 ovarian = test system: OVCAR-8 ovarian
SF-268 CNS = test system: SF-268 CNS
T-47D breast = test system: T-47D breast

SMILES | GI50 (A498 renal) | TGI (A498 renal) | GI50 (COLO 205 colon) | TGI (COLO 205 colon) | GI50 (EKVX NSCLC) | TGI (EKVX NSCLC) | GI50 (LOX IMVI melanoma) | TGI (LOX IMVI melanoma) | GI50 (MDA-MB-231 breast) | TGI (MDA-MB-231 breast) | GI50 (NCI-H522 lung) | TGI (NCI-H522 lung) | GI50 (OVCAR-4 ovarian) | TGI (OVCAR-4 ovarian) | GI50 (OVCAR-8 ovarian) | TGI (OVCAR-8 ovarian) | GI50 (SF-268 CNS) | TGI (SF-268 CNS) | GI50 (T-47D breast) | TGI (T-47D breast)
COc1ccc(/C=C/C(=O)c2ccc(Nc3ncnc4ccccc34)cc2)cc1OC | 8.97 µM | > 100 µM | 14.8 µM | > 100 µM | 13.9 µM | > 100 µM | 2810 nM | 10.4 µM | 19.8 µM | > 100 µM | 7.45 µM | 33.5 µM | 3.26 µM | 27 µM | 7.03 µM | 57.2 µM | 6.55 µM | > 100 µM | 3.61 µM | 25.2 µM
O=C(O)C(/C=C/c1ccco1)=N\Nc1nc(-c2ccc(Cl)cc2)cs1 | > 50 µM | > 50 µM | 12.5 µM | 45.8 µM | 17.1 µM | > 50 µM | 6620 nM | > 50 µM | 14.7 µM | > 50 µM | 7.61 µM | 41.3 µM | 9.41 µM | > 50 µM | 6.93 µM | > 50 µM | 11.1 µM | > 50 µM | 17.3 µM | > 50 µM
Nc1nc(-n2cccn2)nc(-n2cccn2)c1Br | 9.7 µM | 92.6 µM | > 100 µM | > 100 µM | > 100 µM | > 100 µM | > 100000 nM | > 100 µM | > 100 µM | > 100 µM | > 100 µM | > 100 µM | > 100 µM | > 100 µM | > 100 µM | > 100 µM | > 100 µM | > 100 µM | > 100 µM | > 100 µM
COc1ccc(NC2=C(Sc3nc(C)cc(C)n3)C(=O)N(Cc3ccccc3)C2=O)cc1Cl | 62.1 µM | > 160 µM | > 160 µM | > 160 µM | 157 µM | > 160 µM | > 160000 nM | > 160 µM | 127 µM | > 160 µM | > 160 µM | > 160 µM | 107 µM | > 160 µM | 99.2 µM | > 160 µM | > 160 µM | > 160 µM | 25.1 µM | > 160 µM
CCOC(=O)c1sc(=S)c2c(C(=O)c3ccccc3)c(C(=O)c3ccccc3)sc2c1C(=O)OCC | 7.96 µM | 52.2 µM | 15.8 µM | 45.6 µM | 4.94 µM | 52.2 µM | 5080 nM | > 100 µM | 3.61 µM | 34.5 µM | 2.66 µM | 6.89 µM | 9.58 µM | > 100 µM | 3.44 µM | > 100 µM | 3.55 µM | 71.8 µM | 8.64 µM | > 100 µM
CC[C@@]1(O)C(=O)NCc2c1cc1n(c2=O)Cc2cc3cc4c(cc3nc2-1)OCO4 | 0.963 µM | 8.73 µM | 22.7 µM | > 100 µM | 12.9 µM | > 87.1 µM | 296 nM | 18.2 µM | > 48.2 µM | > 100 µM | 0.517 µM | 54.6 µM | 22.5 µM | 97.8 µM | 0.391 µM | 6.99 µM | 0.236 µM | > 30.7 µM | 0.842 µM | > 27.1 µM
C[C@]12CC[C@H]3[C@@H](CCC4=CC(=O)CC[C@@H]43)[C@@H]1CC[C@@H]2OC1(O)C(=O)c2ccccc2C1=O | – | > 100 µM | – | 53 µM | – | 2.79 µM | – | > 100 µM | – | > 100 µM | – | 35.9 µM | – | > 100 µM | – | > 100 µM | – | > 100 µM | – | > 100 µM
Cc1sc2ncnc(Sc3nc4ccccc4[nH]3)c2c1C | 12.2 µM | 52.9 µM | 33.5 µM | > 100 µM | – | – | 21200 nM | > 100 µM | 17.4 µM | 94.3 µM | 21.5 µM | 61.2 µM | 20.6 µM | 66.9 µM | 20.7 µM | 62.7 µM | 20.6 µM | 62.1 µM | 18.1 µM | 62.9 µM
Cn1cnc2c(F)c(Nc3ccc(Br)cc3Cl)c(C(=O)NOCCO)cc21 | 0.103 µM and 0.16 µM | 1.86 µM and 4.1 µM | 0.0211 µM and < 0.0137 µM | > 15.1 µM | 0.734 µM and 3.88 µM | > 100 µM | 1260 nM and 1450 nM | > 80.9 µM | 0.822 µM and 1.94 µM | > 100 µM | > 10 µM and 61.3 µM | > 100 µM | > 10 µM and 22.7 µM | > 100 µM | > 10 µM and 67.9 µM | > 100 µM | > 10 µM and 60.5 µM | > 100 µM | > 10 µM and 82.4 µM | > 100 µM
CNC(=O)c1cc(Oc2ccc3nc(NC(=O)Nc4ccc(Cl)c(Cl)c4)sc3c2)ccn1 | 2.93 µM | 6.64 µM | 4.25 µM | > 100 µM | 3.3 µM | > 100 µM | 1820 nM | 3.52 µM | 2.15 µM | 6.43 µM | 4.09 µM | > 100 µM | 2.06 µM | 4.03 µM | 2.36 µM | 5.27 µM | 1.98 µM | 4.21 µM | 2.65 µM | 6.36 µM
C=C1C(=O)O[C@H]2[C@H]1CC/C(COC(=O)NCCc1ccc(OC)cc1)=C\CC[C@@]1(C)O[C@@H]21 | 4.52 µM | 18.1 µM | 1.94 µM | 4.18 µM | 7.45 µM | 21.5 µM | 1380 nM | 2.89 µM | 2.02 µM | 5.17 µM | 1.82 µM | 3.93 µM | 3.41 µM | 13.6 µM | 2.77 µM | 7.7 µM | 10.6 µM | 23.3 µM | 2.47 µM | 6.52 µM
CCCCCCC(C)CC(CCCCCC)NCCOC(=O)c1ccc([N+](=O)[O-])cc1 (stereo not drawn) | – | 34 µM and 34.8 µM | – | 17.9 µM and 12.8 µM | – | 27.2 µM and 21.4 µM | – | 24.7 µM and 19.5 µM | – | 23.5 µM and 20.9 µM | – | 28.4 µM and 26.2 µM | – | 26.5 µM and 26.9 µM | – | 22.1 µM and 19.7 µM | – | 30.7 µM and 27.6 µM | – | 39.3 µM and 38.1 µM
C#Cc1cccc(NC(=O)Nc2ccc(NC(=O)CCl)cc2)c1 | > 82.5 µM | > 82.5 µM | 20.5 µM | 60.3 µM | > 82.5 µM | > 82.5 µM | 1570 nM | 3.19 µM | 14.8 µM | 34 µM | 12.2 µM | 29.3 µM | 12.2 µM | 28.6 µM | 22.5 µM | > 82.5 µM | 12.7 µM | 28.5 µM | 15.9 µM | 69.8 µM
